Results as given in patent US8128948B1, “Compositions and methods for attracting Anastrepha species” (The United States of America as represented by the …, priority 2007, dated 2012).
One block for each molecule: values may come before it.

Legend:
Assay type in all cases: physicochemical
[1] = Hydrolysis of the dehydration analog; settings: for distribution of products (rel. % of loss; x±s; n=6): hydrolysis of the dehydration analog, 3 day, pH 5.5, 35° C.
[2] = Batch hydrolysis of suspensolide in aqueous buffers
Protocol: Buffers at 25° C. were transferred (1 mL) to 9-mm amber crimp-top (Teflon®-sealed) 2-mL GC vials. Suspensolide in anhydrous acetonitrile or methanol (50 μL) was added to afford initial aqueous concentrations of 0.9 mM and the solution was rapidly mixed for 10 s on a vortex Genie® mixer. Aqueous samples (10 μL) were removed with a 25-μL syringe and combined with 2 μL ACN containing 6 μg (+)-sclareolide as an external standard for HPLC.
GC was used to quantify lactones at the conclusion of each experiment. Hexane (1 mL), containing […] of tetradecane as an internal standard, was added to the vials and extractable analytes were removed from the water by rapidly mixing for 2 min on a vortex Genie® mixer. Emulsions were broken with NaCl, after which the hexane layer was transferred to vials for analysis by GC. The remaining solution was concentrated to dryness via Speed Vac® and dissolved in a methanolic solution of diazomethane. Extraction with pentane and subsequently H2O (0.5 mL each) yielded methyl esters amenable to GC within the organic phase. Initial suspensolide concentrations were measured (quadruplicate) via analogous introduction into 1 mL hexane+internal standard.

[3] = 1H-NMR monitored hydrolysis of suspensolide; settings: 36 μL acetonitrile-d3 + 4 μl D2O; 27° C.
Protocol: Experiments were performed in a 2.0 mm capillary at 27° C. using a Bruker Avance 500 Console, Magnex 11.75 T/54 mm Magnet, and a 2.5 mm TXI probe (non spun). Spectra (64 scans) were acquired with 2.5 acquisition time and processed with ½ Hz line broadening.
Results and Discussion: Pentane extracts of male salivary glands that were added to water (pH 5.5) and rapidly stirred for 5 min at 25° C. yielded products within both phases that matched those obtained from pentane extraction of crops and oral secretions (FIG. 5). ^1H-Nuclear Magnetic Resonance (NMR) spectroscopy was then employed to directly observe the hydrolysis; the original vinyl and methyl proton signals disappeared over 3 h after a 4 μL addition of D2O to suspensolide in 36 μL acetonitrile-d3 (FIG. 6). In comparison, the loss of suspensolide in batch hydrolysis studies occurred much more rapidly (<2 min) over pH 3-10.

level of 7a-epimer “cis-fused” equivalents among hydrolysis products ([2]; FIG. 4): < 5%
epianastrephin to anastrephin ratio of γ-hydroxy acids formed by hydrolysis ([2]; in 18OH2 at pH 5, FIG. 13): ~2.5
time for loss of suspensolide in batch hydrolysis ([2]; over pH 3-10): < 2 min
time for hydrolysis to product distribution III>II>>IV>>>I ([2]; pH 5-6 and 25° C.): < 2 min
epianastrephin to anastrephin product ratio of hydrolysis ([2]; pathways II and III, FIG. 4): ~2.5
time over which suspensolide was hydrolyzed (1H-NMR) [3]: ~3 h
Molecule: C/C1=C/COC(=O)C/C=C(/C)CCC1 [suspensolide, (3E,8E)-suspensolide]

distribution of products (rel. % of loss; x±s; n=6) [1]: 5.8±4.2%
Molecule: C=CC1(C)CCCC2(C)OC(=O)CC12 (stereo not drawn) [“cis-fused” anastrephin]

distribution of products (rel. % of loss; x±s; n=6) [1]: 1.1±0.5%
Molecule: C=CC1(C)CCCC2(C)OC(=O)CC12 (stereo not drawn) [“cis-fused” epianastrephin]

The remaining lines, values behind:

Molecule: C=C[C@@]1(C)CCC[C@]2(C)OC(=O)C[C@@H]12 [anastrephin, reference compound]
distribution of products (rel. % of loss; x±s; n=6) [1]: 17.3±4.2%

Molecule: C=CC1(C)CCCC(C)=C1CC(=O)O (stereo not shown) [dehydration analog, 2,6-dimethyl-6-vinyl-cyclohexeneacetic acid]
loss on hydrolysis ([1]; 3 day time course, pH 5.5 and 35° C.): ~15%

Molecule: C=CC1(C)CCCC2(C)OC(=O)CC12 (stereo not shown) [epianastrephin, reference compound]
distribution of products (rel. % of loss; x±s; n=6) [1]: 1.7±1.2%

Molecule: γ-hydroxy acid of anastrephin [anastrephin γ-hydroxy acid]
distribution of products (rel. % of loss; x±s; n=6) [1]: 38.6±5.1%

Molecule: γ-hydroxy acid of epianastrephin [epianastrephin γ-hydroxy acid]
distribution of products (rel. % of loss; x±s; n=6) [1]: 3.6±2.3%
